Laboratory results published in ChEMBL document CHEMBL1201862, “PubChem BioAssay data set” (2004).
Activity calls are given as the source filed them.

Key:
Vero [1] = assay: viability of Vero cells under compound – cytotoxicity control for flavivirus capping enzyme inhibitors (AID 588742); format: functional; conditions: Chlorocebus sabaeus
Genome polyprotein = Genome polyprotein (dengue virus type 2, UniProt P29990); assay: flavivirus cap methylation enzyme inhibition – biochemical, confirmation dose response, primary screen (AID 588689); format: functional
[2] = biological target: Neurotensin receptor type 1 (Homo sapiens, UniProt P30989); format: functional;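 also: Image-based confirmatory dose-response assay measuring agonist activity at NTR1; NTR1-expressing U2OS osteosarcoma cells imaged for beta-arrestin GFP spot formation; agonist potency where compounds increase beta-arrestin recruitment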
Nonstructural protein 1 = Nonstructural protein 1 (Influenza A virus, UniProt Q194T2); format: functional, Influenza A virus (A/California/07/2009(H1N1))
Vero [3] = assay: cells; format: functional; conditions: Chlorocebus sabaeus
HeLa = assay: viability loss in HeLa cells – cell-based, 24 h, cherry-picked samples, cytotoxicity control, dose response (AID 504726); format: functional; conditions: Homo sapiens;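 also: potency for cytotoxicity as loss of luminescence signal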
[4] = biological target: DNA dC->dU-editing enzyme APOBEC-3G (Homo sapiens, UniProt Q9HC16); assay: Dose Response confirmation of small molecule APOBEC3G DNA Deaminase Inhibitors via a fluorescence-based single-stranded DNA deaminase assay. [Related pubchem assays (depositor defined):AID493012, AID493028]; format: functional
CAAX prenyl protease 2 = biological target: T1, CAAX prenyl protease 2 (Saccharomyces cerevisiae S288c, UniProt Q03530); format: biochemical
T1 sequence (Q03530 whole entry): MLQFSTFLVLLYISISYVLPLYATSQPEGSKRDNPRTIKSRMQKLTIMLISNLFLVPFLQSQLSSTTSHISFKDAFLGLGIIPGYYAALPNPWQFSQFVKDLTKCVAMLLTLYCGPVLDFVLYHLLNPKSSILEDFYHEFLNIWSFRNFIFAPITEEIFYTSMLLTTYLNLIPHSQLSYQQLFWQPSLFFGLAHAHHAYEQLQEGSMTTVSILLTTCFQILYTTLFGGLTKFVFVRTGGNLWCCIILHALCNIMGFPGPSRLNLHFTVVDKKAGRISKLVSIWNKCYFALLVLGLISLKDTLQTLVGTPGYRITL

Hexokinase = biological target: T2, Hexokinase (Trypanosoma brucei, UniProt Q38C41); assay: Confirmation assay for inhibitors of Trypanosoma brucei hexokinase 1-Analogue-first series. [Related pubchem assays (depositor defined):AID1430, AID1632, AID2516, AID2560, AID2579, AID2600, AID449725, AID492951]; format: functional
T2 sequence (Q38C41 whole entry): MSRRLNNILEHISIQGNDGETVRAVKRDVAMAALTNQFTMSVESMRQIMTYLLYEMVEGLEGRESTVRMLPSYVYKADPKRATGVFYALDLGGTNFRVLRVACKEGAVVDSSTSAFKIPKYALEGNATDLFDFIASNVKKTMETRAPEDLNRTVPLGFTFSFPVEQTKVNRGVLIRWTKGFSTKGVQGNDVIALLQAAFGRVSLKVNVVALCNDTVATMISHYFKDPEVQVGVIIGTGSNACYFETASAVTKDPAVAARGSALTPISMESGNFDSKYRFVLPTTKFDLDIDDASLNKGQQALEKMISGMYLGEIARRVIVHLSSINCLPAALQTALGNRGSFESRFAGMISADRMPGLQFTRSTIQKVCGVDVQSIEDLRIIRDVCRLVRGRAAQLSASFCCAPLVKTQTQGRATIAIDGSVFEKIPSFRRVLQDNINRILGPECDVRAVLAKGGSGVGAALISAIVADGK

[5] = biological target: Voltage-dependent T-type calcium channel subunit alpha-1H (Homo sapiens, UniProt O95180); format: functional;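 also: channel activity triggered by adding a high calcium stimulation buffer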
HEK293 [6] = assay: cells; format: functional, cell-based; conditions: Homo sapiens
NS3 = NS3 (Hepatitis C virus, UniProt A3EZJ3); assay: PubChem AID 2173; parameters: species or system Hepacivirus hominis
[7] = biological target: Nucleotide-binding oligomerization domain-containing protein 2 (Homo sapiens, UniProt Q9HC29); assay: inhibition of NOD2-driven NF-kB reporter – cell-based, luminescence, uHTS, HEK293 (AID 1566); format: functional
HEK293 [8] = assay: cells; format: functional, cell-based; conditions: Homo sapiens; remark: listed apart in the source
HEK293 [9] = assay: inhibition of NOD1-driven NF-kB reporter – cell-based, luminescence, uHTS, primary screen (AID 1578); format: functional; conditions: Homo sapiens
HEK293 [10] = assay: cells; format: functional, cell-based; conditions: Homo sapiens; remark: listed apart in the source
[11] = biological target: T3, Phosphoethanolamine/phosphocholine phosphatase (Homo sapiens, UniProt Q8TCT1); assay: SAR assay for compounds that inhibit PHOSPHO1. [Related pubchem assays (depositor defined):AID1545, AID1565, AID1574]
T3 sequence (Q8TCT1 whole entry): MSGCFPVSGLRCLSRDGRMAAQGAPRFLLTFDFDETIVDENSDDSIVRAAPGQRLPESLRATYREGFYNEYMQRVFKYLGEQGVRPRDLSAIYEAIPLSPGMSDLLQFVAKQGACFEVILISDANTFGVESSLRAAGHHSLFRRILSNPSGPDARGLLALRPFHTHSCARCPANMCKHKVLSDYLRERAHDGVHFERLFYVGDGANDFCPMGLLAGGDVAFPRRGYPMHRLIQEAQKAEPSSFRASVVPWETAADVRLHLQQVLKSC

[12] = A Cell Based Secondary Assay To Explore Cytotoxicity of Compounds that Sensitize Mycobacterium Tuberculosis to Beta-Lactam Antibiotics.; format: functional

Chain of Nucleotide-binding oligomerization domain-containing protein 2 (Q9HC29 whole entry, the tested form may be a part): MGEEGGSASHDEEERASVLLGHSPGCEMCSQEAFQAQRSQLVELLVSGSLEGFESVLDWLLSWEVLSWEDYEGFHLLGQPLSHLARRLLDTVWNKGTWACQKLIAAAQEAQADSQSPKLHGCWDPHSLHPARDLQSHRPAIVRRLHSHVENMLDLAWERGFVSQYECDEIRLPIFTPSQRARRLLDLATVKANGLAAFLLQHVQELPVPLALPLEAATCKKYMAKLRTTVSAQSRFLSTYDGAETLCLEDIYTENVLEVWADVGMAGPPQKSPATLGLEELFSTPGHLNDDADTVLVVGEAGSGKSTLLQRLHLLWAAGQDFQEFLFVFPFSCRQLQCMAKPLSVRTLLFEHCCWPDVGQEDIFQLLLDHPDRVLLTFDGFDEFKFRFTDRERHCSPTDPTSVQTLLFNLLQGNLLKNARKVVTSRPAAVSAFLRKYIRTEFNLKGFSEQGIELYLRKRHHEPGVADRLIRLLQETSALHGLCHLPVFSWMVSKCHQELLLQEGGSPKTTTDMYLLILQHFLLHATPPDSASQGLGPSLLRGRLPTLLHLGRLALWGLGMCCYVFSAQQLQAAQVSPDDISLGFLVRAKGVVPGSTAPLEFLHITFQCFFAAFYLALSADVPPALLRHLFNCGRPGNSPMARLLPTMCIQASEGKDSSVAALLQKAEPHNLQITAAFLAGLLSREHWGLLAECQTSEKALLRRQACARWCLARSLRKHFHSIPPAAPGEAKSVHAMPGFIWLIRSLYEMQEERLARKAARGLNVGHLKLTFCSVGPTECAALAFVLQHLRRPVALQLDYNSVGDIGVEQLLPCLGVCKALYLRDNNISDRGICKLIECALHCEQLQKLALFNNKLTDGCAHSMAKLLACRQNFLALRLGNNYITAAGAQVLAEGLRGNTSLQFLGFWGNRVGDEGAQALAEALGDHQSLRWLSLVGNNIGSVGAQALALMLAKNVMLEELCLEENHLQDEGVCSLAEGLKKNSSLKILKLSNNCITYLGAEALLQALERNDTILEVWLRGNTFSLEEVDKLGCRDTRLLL
Chain of Nonstructural protein 1 (Q194T2 whole entry): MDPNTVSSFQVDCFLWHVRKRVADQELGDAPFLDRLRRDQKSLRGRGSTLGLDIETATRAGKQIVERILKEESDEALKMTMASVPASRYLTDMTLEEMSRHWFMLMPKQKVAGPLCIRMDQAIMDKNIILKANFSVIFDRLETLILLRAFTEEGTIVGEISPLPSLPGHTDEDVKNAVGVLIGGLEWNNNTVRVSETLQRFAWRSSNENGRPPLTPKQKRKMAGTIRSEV
Chain of Voltage-dependent T-type calcium channel subunit alpha-1H (O95180 whole entry): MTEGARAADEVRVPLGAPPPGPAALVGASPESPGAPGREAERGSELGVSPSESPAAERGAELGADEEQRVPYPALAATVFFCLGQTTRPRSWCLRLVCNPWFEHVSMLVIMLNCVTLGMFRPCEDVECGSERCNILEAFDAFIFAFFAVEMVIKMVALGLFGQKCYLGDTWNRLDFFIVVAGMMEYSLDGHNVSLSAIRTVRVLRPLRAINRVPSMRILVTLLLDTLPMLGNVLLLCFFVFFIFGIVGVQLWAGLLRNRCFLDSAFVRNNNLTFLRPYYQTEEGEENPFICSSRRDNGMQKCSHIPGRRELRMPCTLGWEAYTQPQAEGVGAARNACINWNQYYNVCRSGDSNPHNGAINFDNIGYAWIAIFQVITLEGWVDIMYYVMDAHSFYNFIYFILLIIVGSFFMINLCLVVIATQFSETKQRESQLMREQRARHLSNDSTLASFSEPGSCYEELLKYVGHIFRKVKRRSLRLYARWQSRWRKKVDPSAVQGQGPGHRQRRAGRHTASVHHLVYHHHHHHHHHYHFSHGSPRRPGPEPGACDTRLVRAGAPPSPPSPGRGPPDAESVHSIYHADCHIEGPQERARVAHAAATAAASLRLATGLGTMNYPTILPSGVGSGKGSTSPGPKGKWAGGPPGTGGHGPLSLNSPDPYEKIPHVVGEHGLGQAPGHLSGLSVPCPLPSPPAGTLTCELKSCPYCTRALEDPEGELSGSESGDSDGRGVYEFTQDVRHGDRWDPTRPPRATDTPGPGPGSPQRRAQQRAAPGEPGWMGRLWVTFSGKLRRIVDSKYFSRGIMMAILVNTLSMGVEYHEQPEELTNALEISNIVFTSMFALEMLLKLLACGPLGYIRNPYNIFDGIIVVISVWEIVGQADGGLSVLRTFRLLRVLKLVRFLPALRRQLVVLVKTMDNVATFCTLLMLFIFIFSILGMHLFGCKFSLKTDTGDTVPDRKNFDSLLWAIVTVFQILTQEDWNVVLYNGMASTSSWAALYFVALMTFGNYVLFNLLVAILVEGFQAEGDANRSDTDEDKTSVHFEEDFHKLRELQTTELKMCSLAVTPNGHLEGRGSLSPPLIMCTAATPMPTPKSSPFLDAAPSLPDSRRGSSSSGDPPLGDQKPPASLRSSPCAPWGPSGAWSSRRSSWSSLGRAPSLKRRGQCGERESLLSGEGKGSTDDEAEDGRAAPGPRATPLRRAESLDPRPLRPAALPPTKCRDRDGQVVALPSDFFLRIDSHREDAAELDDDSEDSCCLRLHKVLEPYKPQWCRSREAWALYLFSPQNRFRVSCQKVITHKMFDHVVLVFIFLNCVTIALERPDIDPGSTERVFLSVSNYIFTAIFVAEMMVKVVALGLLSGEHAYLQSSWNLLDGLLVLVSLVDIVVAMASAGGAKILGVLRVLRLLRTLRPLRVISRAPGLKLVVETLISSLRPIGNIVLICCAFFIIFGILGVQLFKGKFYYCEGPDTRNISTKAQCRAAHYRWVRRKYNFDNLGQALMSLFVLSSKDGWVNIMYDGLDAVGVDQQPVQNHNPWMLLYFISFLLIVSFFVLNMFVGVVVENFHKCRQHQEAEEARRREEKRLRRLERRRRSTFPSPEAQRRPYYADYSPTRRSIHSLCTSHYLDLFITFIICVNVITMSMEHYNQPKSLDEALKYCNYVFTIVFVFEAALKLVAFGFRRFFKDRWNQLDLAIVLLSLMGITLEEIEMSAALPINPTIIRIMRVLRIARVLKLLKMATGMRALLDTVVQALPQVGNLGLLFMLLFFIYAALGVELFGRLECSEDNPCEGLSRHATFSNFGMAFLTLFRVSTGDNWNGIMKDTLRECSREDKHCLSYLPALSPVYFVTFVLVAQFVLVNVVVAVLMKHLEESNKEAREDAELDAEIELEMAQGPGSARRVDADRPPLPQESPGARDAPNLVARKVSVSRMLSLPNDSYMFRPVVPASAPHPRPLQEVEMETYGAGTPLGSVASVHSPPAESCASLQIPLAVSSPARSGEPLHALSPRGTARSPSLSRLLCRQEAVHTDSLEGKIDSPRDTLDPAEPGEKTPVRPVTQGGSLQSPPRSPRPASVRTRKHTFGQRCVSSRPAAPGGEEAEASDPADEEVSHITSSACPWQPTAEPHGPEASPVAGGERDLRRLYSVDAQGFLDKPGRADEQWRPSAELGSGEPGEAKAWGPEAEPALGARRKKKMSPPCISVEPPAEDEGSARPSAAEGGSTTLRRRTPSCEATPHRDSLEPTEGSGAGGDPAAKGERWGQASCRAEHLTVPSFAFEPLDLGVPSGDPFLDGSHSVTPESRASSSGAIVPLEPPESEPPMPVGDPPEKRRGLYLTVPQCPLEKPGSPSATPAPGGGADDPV
Chain of NS3 (A3EZJ3 whole entry, the tested form may be a part): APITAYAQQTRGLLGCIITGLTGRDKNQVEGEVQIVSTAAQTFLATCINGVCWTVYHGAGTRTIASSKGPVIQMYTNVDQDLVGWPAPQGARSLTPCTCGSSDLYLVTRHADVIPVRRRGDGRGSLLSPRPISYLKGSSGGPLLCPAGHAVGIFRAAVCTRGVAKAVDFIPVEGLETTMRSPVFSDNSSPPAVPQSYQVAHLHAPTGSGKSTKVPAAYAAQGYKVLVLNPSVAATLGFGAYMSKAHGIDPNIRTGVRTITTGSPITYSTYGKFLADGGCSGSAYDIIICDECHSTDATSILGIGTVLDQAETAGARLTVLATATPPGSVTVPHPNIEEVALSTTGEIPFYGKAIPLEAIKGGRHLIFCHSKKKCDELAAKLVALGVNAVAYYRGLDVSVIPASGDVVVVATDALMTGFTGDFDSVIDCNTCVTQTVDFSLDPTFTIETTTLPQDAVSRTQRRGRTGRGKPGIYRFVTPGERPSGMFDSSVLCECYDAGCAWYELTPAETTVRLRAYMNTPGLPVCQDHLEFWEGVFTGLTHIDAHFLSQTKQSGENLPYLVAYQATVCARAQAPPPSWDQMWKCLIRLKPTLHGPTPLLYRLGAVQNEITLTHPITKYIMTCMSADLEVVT
Chain of Neurotensin receptor type 1 (P30989 whole entry): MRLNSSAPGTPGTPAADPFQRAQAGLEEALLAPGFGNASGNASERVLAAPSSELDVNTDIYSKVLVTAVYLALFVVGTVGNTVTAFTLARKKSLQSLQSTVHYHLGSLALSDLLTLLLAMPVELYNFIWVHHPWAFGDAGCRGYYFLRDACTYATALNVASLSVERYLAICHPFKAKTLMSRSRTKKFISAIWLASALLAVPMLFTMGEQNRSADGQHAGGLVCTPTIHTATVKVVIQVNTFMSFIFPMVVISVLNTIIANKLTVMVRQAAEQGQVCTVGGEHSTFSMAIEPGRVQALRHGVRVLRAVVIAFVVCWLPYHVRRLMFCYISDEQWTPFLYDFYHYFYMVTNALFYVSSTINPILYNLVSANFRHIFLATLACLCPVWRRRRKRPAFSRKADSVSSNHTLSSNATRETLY
Chain of DNA dC->dU-editing enzyme APOBEC-3G (Q9HC16 whole entry): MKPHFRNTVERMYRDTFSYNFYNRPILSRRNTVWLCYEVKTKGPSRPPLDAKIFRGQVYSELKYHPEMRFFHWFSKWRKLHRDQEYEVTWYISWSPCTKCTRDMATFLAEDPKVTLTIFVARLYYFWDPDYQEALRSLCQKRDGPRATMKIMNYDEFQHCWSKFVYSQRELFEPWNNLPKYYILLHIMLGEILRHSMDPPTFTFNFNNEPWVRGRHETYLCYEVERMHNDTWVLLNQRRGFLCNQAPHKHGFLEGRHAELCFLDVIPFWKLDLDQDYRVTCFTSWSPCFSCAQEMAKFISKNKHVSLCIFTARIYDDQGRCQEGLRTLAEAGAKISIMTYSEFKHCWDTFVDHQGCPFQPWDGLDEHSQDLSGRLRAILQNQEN

CCOC(=O)c1cc(-c2ccc(/C=C3/C(=O)N(c4ccc(C(=O)O)cc4)N=C3C)o2)ccc1Cl
CC50 (Vero [1]): 24.9 µM (active)
IC50 (Genome polyprotein): 21.2 µM (active)
EC50 [2]: 16 µM (active)
IC50 (Nonstructural protein 1): 66.1 µM (active)
CC50 (Vero [3]): > 25 µM (active)

CCn1c(S)nnc1-c1ccc([N+](=O)[O-])cc1
AC50 (HeLa): 239 µM (active)
IC50 [4]: 9.77 µM (active)

O=C(COC(=O)c1ccccc1Cc1ccccc1)NC1CCS(=O)(=O)C1 (centres undefined)
AC50 (CAAX prenyl protease 2): 4.52 µM (active)

CCOc1ccc(C(=O)Nc2cc(Cl)ccc2C(=O)O)cc1
IC50 (Hexokinase): 20.7 µM (active)

Cc1ccc(S(=O)(=O)N2CCCC(NC(=O)N3CCN(c4ccccc4)CC3)C2)cc1 (centres undefined)
EC50 [5]: 8.79 µM (active)

O=C(NCc1ccccc1)n1sc2ccccc2c1=O
IC50 (Hexokinase): 4.44 µM (active)

COc1ccccc1OCCCOc1cccc(/C=C2\SC(=O)NC2=O)c1
IC50 (HEK293 [6]): 15.7 µM (active)
IC50 (NS3): 3.82 µM (active)
EC50 [7]: 9.15 µM (active)
IC50 (HEK293 [8]): > 20 µM (inactive)
EC50 (HEK293 [9]): 9.43 µM (active)
IC50 (HEK293 [10]): > 20 µM (inactive)

COc1ccc(-n2sc3cc(F)ccc3c2=O)cc1
IC50 [11]: 5.42 µM (inactive)

COC(=O)/C(=C\Nc1ccc(Cl)cc1Cl)NC(=O)c1ccc(Cl)cc1Cl
CC50 [12]: > 40 µM (active)
